Data from patent US10370333B2 (Sanford Burnham Prebys Medical Discovery Institute, priority 2012, dated 2019).

Molecular target: TNAP (Homo sapiens (Human), UniProt P05186)
Experiment: TNAP (PPi) inhibition assay, pyrophosphate as substrate
Format: biochemical
Outline: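 Enzyme source was conditioned serum-free medium from COS-1 cells transiently expressing tagged human TNAP, dialyzed against TBS with MgCl2/ZnCl2. Activity on natural substrate PPi at pH 7.4 read as liberated phosphate (Biomol Green).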

Row | SMILES | IC50
1 | CCNC(=O)c1ccc(OC)c(S(=O)(=O)Nc2cnc3ccccc3c2)c1 [Example II-16, N-Ethyl-4-methoxy-3-(quinolin-3-ylsulfamoyl)-benzamide] | 100 to 1000 nM
2 | COc1ccc(OC(F)(F)F)cc1S(=O)(=O)Nc1cnc2ccccc2c1 [Example X-6, 2-Methoxy-N-(quinolin-3-yl)-5-(trifluoromethoxy)benzenesulfonamide] | < 100 nM
3 | COc1ccc(C(=O)Nc2ccccc2)cc1S(=O)(=O)Nc1cnc2ccccc2c1 [Example II-18, 4-Methoxy-N-phenyl-3-(quinolin-3-ylsulfamoyl)-benzamide] | > 1000 nM
4 | CCNC(=O)c1ccc(OC)c(S(=O)(=O)Nc2cccnc2)c1 [Example I-17, N-Ethyl-4-methoxy-3-(pyridin-3-ylsulfamoyl)-benzamide] | > 1000 nM
5 | COc1ccc(OC(F)(F)F)cc1S(=O)(=O)Nc1cncc(-c2ccco2)c1 [Example XI-13, N-(5-(Furan-2-yl)pyridin-3-yl)-2-methoxy-5-(trifluoromethoxy)benzenesulfonamide] | < 100 nM
6 | COC(=O)c1cncc(NS(=O)(=O)c2cc(OC)ccc2OC)c1 [Example IV-11, Methyl 5-(2,5-dimethoxyphenylsulfonamido)nicotinate] | < 100 nM
7 | COc1ccc(Br)cc1S(=O)(=O)Nc1nccs1 [Example V-15, 5-Bromo-2-methoxy-N-thiazol-2-yl-benzenesulfonamide] | > 1000 nM
8 | CNC(=O)c1ccc(OC)c(S(=O)(=O)Nc2cccnc2)c1 [Example I-16, 4-Methoxy-N-methyl-3-(pyridin-3-ylsulfamoyl)-benzamide] | > 1000 nM
9 | COC(=O)c1ccc(-c2cncc(NS(=O)(=O)c3cc(Cl)ccc3OC)c2)cc1 [Example III-30, 4-[5-(5-Chloro-2-methoxy-benzenesulfonylamino)-pyridin-3-yl]-benzoic Acid Methyl Ester] | < 100 nM
10 | CCCCN(c1cnc2ccccc2c1)S(=O)(=O)c1cc(Br)ccc1OC [Example VII-5, 5-Bromo-N-butyl-2-methoxy-N-(quinolin-3-yl)benzenesulfonamide] | > 1000 nM
11 | COc1ccc(C(=O)Nc2ccccc2)cc1S(=O)(=O)Nc1cccnc1 [Example I-19, 4-Methoxy-N-phenyl-3-(pyridin-3-ylsulfamoyl)-benzamide] | > 1000 nM
12 | COc1ccc(OC)c(S(=O)(=O)Nc2ccsc2)c1 [Example V-2, 2,5-Dimethoxy-N-(thiophen-3-yl)benzenesulfonamide] | > 1000 nM
13 | O=S(=O)(Nc1cncc(-c2cscn2)c1)c1cc(Br)ccc1OC(F)(F)F [Example XI-29, 5-Bromo-N-(5-(thiazol-4-yl)pyridin-3-yl)-2-(trifluoromethoxy)benzenesulfonamide] | < 100 nM
14 | COc1ccc(Cl)cc1S(=O)(=O)Nc1cncc(-c2ccc(O)cc2)c1 | < 100 nM
15 | COc1ccc(OC)c(S(=O)(=O)Nc2ccnnc2)c1 [Example V-27, 2,5-Dimethoxy-N-pyridazin-4-yl-benzenesulfonamide] | > 1000 nM
16 | COc1ccc(-c2ccncc2)cc1S(=O)(=O)Nc1cccnc1 [Example I-10, 2-Methoxy-5-pyridin-4-yl-N-pyridin-3-yl-benzenesulfonamide] | > 1000 nM
17 | COc1ccc(Cl)cc1S(=O)(=O)Nc1cncc(C(=O)N2CCOCC2)c1 [Example IV-34, 5-Chloro-2-methoxy-N-(5-(morpholine-4-carbonyl)pyridin-3-yl)benzenesulfonamide] | 100 to 1000 nM
18 | O=S(=O)(Nc1cncc(-c2cccs2)c1)c1cc(Br)ccc1OC(F)(F)F [Example XI-15, 5-Bromo-N-(5-(thiophen-2-yl)pyridin-3-yl)-2-(trifluoromethoxy)benzenesulfonamide] | 100 to 1000 nM
19 | COc1ccc(OC)c(S(=O)(=O)Nc2nccs2)c1 [Example V-16, 2,5-Dimethoxy-N-thiazol-2-yl-benzenesulfonamide] | > 1000 nM
20 | O=S(=O)(Nc1cnc2ccccc2c1)c1cc(Br)ccc1OC(F)(F)F [Example X-1, 5-Bromo-N-quinolin-3-yl-2-trifluoromethoxy-benzenesulfonamide] | < 100 nM
